Measured values published in ChEMBL document CHEMBL1201862, “PubChem BioAssay data set” (2004).
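Grown in 96-well plates, cells were treated for 48 hours with each compound at five concentrations. Insufficient inhibition: endpoint recorded as highest concentration tested. GI50 = concentration required for 50% inhibition of growth.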 Activity calls are given as the source filed them. Cut-off read from the data, not from the text of the source: active = GI50 up to about 1.1 µM and inactive = higher.

Assays:
Assay in all cases: inhibition of tumour cell growth, NCI panel, 48 h
[1] = tested on: RXF 393
[2] = tested on: SK-MEL-28
[3] = tested on: NCI-H23
[4] = tested on: HCT-15
[5] = tested on: NCI-H460
[6] = tested on: SF-268
[7] = tested on: BT-549
[8] = tested on: Hs-578T
[9] = tested on: HCT-116
[10] = tested on: T47D
[11] = tested on: EKVX
[12] = tested on: UACC-257
[13] = tested on: PC-3
[14] = tested on: RPMI-8226

Row | SMILES | GI50 [1] | GI50 [2] | GI50 [3] | GI50 [4] [µM] | GI50 [5] | GI50 [6] | GI50 [7] | GI50 [8] | GI50 [9] | GI50 [10] | GI50 [11] | GI50 [12] | GI50 [13] | GI50 [14]
1 | COc1ccc(CCn2ccc(C)n2)c(OC)c1 | > 100 µM (inactive) | > 100 µM (inactive) | > 100 µM (inactive) | > 100 | > 100 µM (inactive) | > 100 µM (inactive) | > 100 µM (inactive) | > 100 µM (inactive) | > 100 µM (inactive) | 68.9 µM (inactive) | 47.2 µM (inactive) | > 100 µM (inactive) | > 100 µM (inactive) | 
2 | CC/C=C(\C(=C/CC)[N+](=O)[O-])[N+](=O)[O-] | 14.9 µM (inactive) | 19.9 µM (inactive) | 18.9 µM (inactive) |  | 18 µM (inactive) |  | 18.1 µM (inactive) |  | 19.9 µM (inactive) | 28.4 µM (inactive) | 15.6 µM (inactive) | 17.1 µM (inactive) | 33.1 µM (inactive) | 24.1 µM (inactive)
3 | O=C(Nc1nc2c(=O)[nH]cnc2s1)c1ccccc1 | 55.7 µM (inactive) | > 100 µM (inactive) | > 100 µM (inactive) | > 100 | 41.5 µM (inactive) | > 100 µM (inactive) | > 100 µM (inactive) | 61.5 µM (inactive) | > 100 µM (inactive) |  | > 100 µM (inactive) | > 100 µM (inactive) | > 100 µM (inactive) | 
4 | Cc1ccc(S(=O)(=O)N(c2ccccc2F)C2CCCCC2O)cc1 (stereo not given) |  | > 100 µM (inactive) | 34.4 µM (inactive) | 55 | 45.9 µM (inactive) | 38 µM (inactive) | 14.6 µM (inactive) | 33 µM (inactive) | 18 µM (inactive) |  | 35.1 µM (inactive) | 0.214 µM (active) | 35.4 µM (inactive) | 36.9 µM (inactive)
5 | O=C1OC(c2ccccc2Br)=N/C1=C/c1ccccc1 |  | 41.8 µM (inactive) | 32.8 µM (inactive) | 29.9 | 42.5 µM (inactive) | 31.6 µM (inactive) |  | 31.3 µM (inactive) | 37.2 µM (inactive) | > 100 µM (inactive) | > 100 µM (inactive) | > 100 µM (inactive) | > 100 µM (inactive) | 33.1 µM (inactive)
6 | COc1cc([C@@H]2c3cc4c(cc3[C@@H](Nc3ccc(Cl)cc3C(=O)c3ccccc3Cl)[C@H]3COC(=O)[C@H]23)OCO4)cc(OC)c1OC | 0.144 µM (active) | 0.333 µM (active) | 0.166 µM (active) | 0.102 | 0.146 µM (active) | 0.189 µM (active) |  | 0.0241 µM (active) | 0.0738 µM (active) | > 100 µM (inactive) | 57.9 µM (inactive) | 0.184 µM (active) | 0.16 µM (active) | 0.173 µM (active)
7 | CC1C2CC(C(C3C(=O)C4CC3C(C)(C)C4C)C2=O)C1(C)C (stereo not given) | > 100 µM (inactive) | > 100 µM (inactive) | > 100 µM (inactive) |  | > 100 µM (inactive) | > 100 µM (inactive) | > 100 µM (inactive) | > 100 µM (inactive) | > 100 µM (inactive) | > 100 µM (inactive) | > 100 µM (inactive) | > 100 µM (inactive) | > 100 µM (inactive) | 
8 | COC(=O)C1(F)C(=O)NC(=O)NC1O (stereo not given) | > 100 µM (inactive) | > 100 µM (inactive) | > 100 µM (inactive) | 61.5 | 50.6 µM (inactive) | > 100 µM (inactive) |  | > 100 µM (inactive) | 50.8 µM (inactive) | > 100 µM (inactive) | 99.8 µM (inactive) | > 100 µM (inactive) | 50.8 µM (inactive) | > 100 µM (inactive)
9 | CC1(C)C2CCC1(C)[C@H](O)[C@H]2Nc1cc(C(F)(F)F)cc(C(F)(F)F)c1 (stereo not given in full) | 2.85 µM (inactive) | 1.74 µM (inactive) | 2.36 µM (inactive) | 3.49 | 3.71 µM (inactive) | 3.14 µM (inactive) | 3.91 µM (inactive) |  | 2.72 µM (inactive) | 2.59 µM (inactive) | 3.83 µM (inactive) | 3.78 µM (inactive) | 2.47 µM (inactive) | 3.01 µM (inactive)
10 | CC(CO)(CO)N1C(=O)C2C3C=CC(C3)C2C1=O (stereo not given) | 52.1 µM (inactive) | > 100 µM (inactive) | > 100 µM (inactive) | > 100 | > 100 µM (inactive) | > 100 µM (inactive) |  | > 100 µM (inactive) | > 100 µM (inactive) | > 100 µM (inactive) | > 100 µM (inactive) | > 100 µM (inactive) | > 100 µM (inactive) | > 100 µM (inactive)
11 | COc1cccc(CCn2c(N)c(C#N)c3ccc([N+](=O)[O-])cc3c2=O)c1 |  | > 100 µM (inactive) | > 46.5 µM (inactive) | > 31.6 | > 46.5 µM (inactive) | > 46.5 µM (inactive) | > 10 µM (inactive) | 39.9 µM (inactive) | > 46.5 µM (inactive) | > 46.5 µM (inactive) | > 31.6 µM (inactive) | > 31.6 µM (inactive) | > 46.5 µM (inactive) | 
12 | CC1=CCC2CC1C(C(=O)c1c[nH]c3ccccc13)=NC2(C)C (stereo not given) |  | > 100 µM (inactive) | 87.7 µM (inactive) | 45.2 | 52.4 µM (inactive) | > 100 µM (inactive) | 40 µM (inactive) | 41.9 µM (inactive) | 50.4 µM (inactive) | 29.4 µM (inactive) | 33.3 µM (inactive) | 27.4 µM (inactive) | 30.8 µM (inactive) | 25.1 µM (inactive)
13 | CCCc1[nH]c2ccccc2c1-c1c(CCC)[nH]c2ccccc12 | 20 µM (inactive) | 7.46 µM (inactive) | 8.05 µM (inactive) | 3.62 | 23.9 µM (inactive) | 9.62 µM (inactive) | 13.9 µM (inactive) | 6.95 µM (inactive) | 4.6 µM (inactive) |  | 16.8 µM (inactive) | 18.1 µM (inactive) | 5.42 µM (inactive) | 19.7 µM (inactive)
14 | O=c1cnn(C/C=C\CO)c(=O)[nH]1 | > 100 µM (inactive) | > 100 µM (inactive) | > 100 µM (inactive) | > 100 | > 100 µM (inactive) | > 100 µM (inactive) |  | > 100 µM (inactive) |  | > 100 µM (inactive) | > 100 µM (inactive) | > 100 µM (inactive) | > 100 µM (inactive) | > 100 µM (inactive)
15 | O=C(/C=C/c1ccccc1)Oc1cccc(O)c1 | > 100 µM (inactive) | 23.6 µM (inactive) | 63.8 µM (inactive) | 16.6 | > 100 µM (inactive) | 15.5 µM (inactive) | > 100 µM (inactive) | 25.9 µM (inactive) | 16.4 µM (inactive) | 59.6 µM (inactive) |  | > 100 µM (inactive) | > 100 µM (inactive) | 9.55 µM (inactive)
16 | C=C1N(C)c2ccc(S(=O)(=O)c3ccc4c(c3)C(C)(C)C(=C)N4C)cc2C1(C)C |  | > 100 µM (inactive) | 27.4 µM (inactive) | 59.7 | 49.8 µM (inactive) | 36.6 µM (inactive) | 26.1 µM (inactive) | 24.3 µM (inactive) | 34.5 µM (inactive) | 24.2 µM (inactive) | 30.9 µM (inactive) | 26.4 µM (inactive) | 35.5 µM (inactive) | 9.08 µM (inactive)
17 | NC(=O)c1oc([N+](=O)[O-])c(-c2ccccc2)c1-c1ccccc1 | 31.6 µM (inactive) | 44 µM (inactive) | 15.4 µM (inactive) | 15.5 | 26.2 µM (inactive) | 37.6 µM (inactive) | 8 µM (inactive) | 0.0752 µM (active) | 15.4 µM (inactive) | 16.3 µM (inactive) | 17.6 µM (inactive) | 18 µM (inactive) | 15.5 µM (inactive) | 
18 | CCC1C(=O)C[C@H]2[C@@H]3C(O)CC4=CC(=O)CC[C@]4(C)[C@H]3CC[C@]12C (stereo not given in full) |  | > 50 µM (inactive) | > 50 µM (inactive) | > 50 | > 50 µM (inactive) | > 50 µM (inactive) |  | > 50 µM (inactive) | > 50 µM (inactive) | > 50 µM (inactive) | > 50 µM (inactive) | > 50 µM (inactive) | > 50 µM (inactive) | > 50 µM (inactive)
19 | C/C(CC(O)(C(F)(F)F)C(F)(F)F)=N/Nc1ccc([N+](=O)[O-])cc1[N+](=O)[O-] | 2.12 µM (inactive) | 3.27 µM (inactive) | 2.46 µM (inactive) | 2.85 | 3.11 µM (inactive) | 2.81 µM (inactive) |  | 2.81 µM (inactive) | 1.75 µM (inactive) | 1.08 µM (active) | 2.26 µM (inactive) | 2.87 µM (inactive) | 2.78 µM (inactive) | 1.56 µM (inactive)
20 | CCCCCCOP(=O)(OCCCCCC)C(NC(=O)OCC)(C(F)(F)F)C(F)(F)F | 11.7 µM (inactive) | 41.9 µM (inactive) |  | 30.4 | 30.3 µM (inactive) | 40.6 µM (inactive) | 22.5 µM (inactive) | 51.5 µM (inactive) | 27.4 µM (inactive) | 39.5 µM (inactive) | 64.6 µM (inactive) |  | 33.3 µM (inactive) | > 100 µM (inactive)
21 | O=C1NC(=O)C(CC2CCCCCCCCCCC2=O)C(=O)N1 (stereo not given) | > 100 µM (inactive) | > 100 µM (inactive) | > 100 µM (inactive) | > 100 | > 100 µM (inactive) | > 100 µM (inactive) | > 100 µM (inactive) | > 100 µM (inactive) | > 100 µM (inactive) |  | > 100 µM (inactive) | > 100 µM (inactive) | > 100 µM (inactive) | 
22 | COc1ccc(-c2oc3cc(-c4cc5oc(-c6ccc(OC)cc6)c(-c6ccc(OC)cc6)c5cc4OC)c(OC)cc3c2-c2ccc(OC)cc2)cc1 | > 100 µM (inactive) | > 100 µM (inactive) | > 100 µM (inactive) | > 100 | > 100 µM (inactive) | > 100 µM (inactive) | > 100 µM (inactive) | > 100 µM (inactive) | > 100 µM (inactive) |  | > 100 µM (inactive) | > 100 µM (inactive) | > 100 µM (inactive) | > 100 µM (inactive)
